According to US20210128675A1, “LHRH-PACLITAXEL CONJUGATES AND METHODS OF USE” (priority 2019, published 2021):
Entries after “also recorded” stand apart in the source; their conditions may differ.

Key:
[1] = system: knocked down LHRH receptors of breast cancer cells; test: alamar blue reduction after siRNA knockdown of LHRH receptors; type: cell-based, human; conditions: cells treated with siRNAs; 5 μM; 24, 48 and 72 hours
[2] = system: MDA-MB-231 human triple negative breast cancer cells xenograft; test: subcutaneous xenograft tumor shrinkage study; type: in vivo, Athymic Nude-Foxn1nu strain mice; conditions: for tumor volume, 21-day group: after about two weeks, mean volume before treatment 98 mm^3; for xenograft tumor size, 28-day group: two weeks of drug administration, mean volume before treatment 230 mm^3; for tumor outcome, early stage (day 14 group): 10 mg/kg
Protocol: In this section, cell culture, tumor induction and drug injection studies were carried out. First, 20 μl of 1×10^6 MDA-MB-231 human triple negative cancer cells were cultured in T75 tissue culture flasks (CELLTREAT, Pepperell, Mass., USA). This was carried out at 37° C. until 70% confluence was reached. The cells were grown under normal atmospheric pressure levels in a “L15′ medium” that is typically made up of: L-15 medium (ATCC, Manassas, Va., USA), supplemented with 100 I.U./ml penicillin/100 µg/ml streptomycin and 10% FBS (ATCC, Manassas, Va., USA).
Forty 4-weekold Athymic Nude-FoxnInu strain mice with individual weights of ˜17 g each was purchase from Envigo (Somerset, N.J., USA). These animals were approved for use in the current work by the University of Massachusetts Medical School Institutional Animal Care and Use Committee (UMMS IACUC) with docket #A2630-17. All of the animals were maintained and used according to the approved UMMS IACUC procedure and guideline.
Subcutaneous tumor xenografts were induced by the injection of 5.0×10^6 of MDA-MB-231 human triple negative breast cancer cells (suspended in sterile saline) into the interscapular region (for a better angiogenic response). Tumor formation was carefully assessed by palpation. Tumor growth was then monitored daily with the digital calipers. The tumor volume was calculated using the following modified ellipsoidal formula: […]
where length was the longest axis of the tumor and width is the measurement at a right angle to the length.
The mice were randomly chosen in groups of three (for each drugs injection) into their respective treatment groups. These include groups of mice with early stage (14 days after tumor induction), mid stage (21 days after tumor induction) and late stage (28 days after tumor induction) tumors. The weights of the mice and their tumor sizes were monitored and measured (using digital calipers) on a daily basis. These precise volumes and measured weights of the mice were used to guide the administration of the drugs. They were also used to monitor toxicity and side effects associated with the drugs. For each of the study groups, 3 mice each were randomly assigned to injection of 10 mg/kg of the specific drug configuration (PTX, [D-Lys6]LHRH-conjugated PTX and DMSO).
Different groups of mice were injected intravenously with each drug through their tail veins. This was done after tumor growth for 14, 21 and 28 days. The mice were injected with 10 mg/kg per week, during the two-week periods in which the effects of drugs were investigated. Following each drug administration, the tumor sizes were monitored with calipers on a daily basis (every 24 hours). In this way, the possible tumor shrinkage, growth or elimination, were monitored on a daily basis. Furthermore, the health status of the mice was monitored on a daily basis. This was done by monitoring the mice for signs of weight loss or altered motor ability in their cages. At the end of study, the mice were euthanized, following the approved IACUC guidelines and procedures. Thereafter, tumor tissues were excised from all of the mice, including tissues from their major organs (kidneys, spleen, liver and lungs).

MDA-MB-231 cells = test: confocal fluorescence imaging of cellular uptake and cytotoxicity; type: cell-based, human; conditions: 30 μM, 6 hours
[3] = system: triple negative breast tumor; test: drug-tissue adhesion study (drug-coated AFM tip); type: binding, mice
Protocol: In an effort to understand the specificity in the targeting of triple negative breast cancer via the receptors that are over-expressed on the tumor, adhesion measurements were carried out on the control xenograft tissue samples at different stages of tumor development. Adhesion forces and interactions (between the different drug molecules and receptors on the surfaces of the tumor tissues at different stages of development) were explored in an effort to understand the interactions of the drugs with the tumor and non-tumor tissue.
Antigen retrieval was carried out on the fixed tissue. This involved exposing target antigens to receptors on a […] thick microtome tissue slice. These sliced tissues were prepared for adhesion measurements in an Asylum MFP3D-Bio Atomic Force Microscope (AFM) (Asylum Research, Oxford Instrument, CA, USA). The AFM tips RESP-20 AFM tip (Bruker Santa Barbara, Calif., USA) were dip-coated with paclitaxel or [D-Lys6]LHRH-conjugated paclitaxel using the techniques described in Obayemi et al. (J. Mech. Behav. Biomed. Mater., 68 (2017), pp. 276-286).
A simple AFM tip dip-coating technique (J. D. Obayemi et al. Materials Science and Engineering C. 66, (2016), 51-65, Hampp, E. et al. Res. 27 (22), 2891, Hutter, J. L. et al. Instrum. 64, 1868) (of the drugs) was used to coat the AFM tips at room-temperature (˜23° C.). In addition, a positive control of LHRH peptides was coated onto the AFM tips and used to determine the adhesion forces between the receptors on breast cancer tissue. All of the coated AFM tips were air-dried for about 6 h and kept in a desiccator overnight before the adhesion measurements.
The spring constants of the coated and uncoated AFM tips were measured experimentally using the thermal tune method (J.D. Obayemi, et al. Mater., 68 (2017), 276-286). This was done to obtain the actual spring constants that were used to calculate the pull-off forces from Hooke's law. The adhesion interactions were measured for the following configurations of coatings on the AFM tips and breast cancer tumor at different stages on the mice: […]

[4] = histopathological and toxicity studies; conditions: 10 mg/kg weekly for two weeks; for qualitative toxicity (mortality, body weight, clinical signs): tumor-bearing mice
Protocol: Double doses of 10 mg/kg of PTX and PTX-[D-Lys6]LHRH were then administered (on a weekly basis for two weeks) to female athymic nude mice that were subcutaneously-induced with TNBC. In this way, qualitative toxicity was studied by considering differences in mortality, changes in body weight, clinical signs, gross observations and the histopathology of the lungs, kidneys and the liver at different stages of tumor development. This was done for the different drugs and cancer treatment durations. Daily observations and weight measurements were also used to check for possible animal reactions to the drugs, physiological changes, weight loss/gain, and the general well-being of the mice.
Hematoxylin and eosin (H and E) staining was also carried out. This was used for the identification of tumor necrosis and the examination of histologic changes that occurred in vital organs, following the administration of the drugs. Briefly, formalin-fixed, paraffin-embedded tissue/organs (tumor, kidneys, liver and lungs) samples (5 m) were injected with PTX, [D-Lys6]LHRH-conjugated PTX drugs and DMSO. These were hydrated by passing them through decreasing concentrations (100, 90 &70%) of alcohol baths and water.
The hydrated tissue sections were then stained in hematoxylin solution for 5 mins. This was followed by rinsing with tap water for 3 minutes and differentiation in 1% acid alcohol for 5 minutes. Tap water was then used to rinse (three times) before dipping the sections in ammonia water for 2 minutes. This was followed by staining with eosin for 10 mins. The treated sliced samples were dehydrated in solution with increasing concentrations of alcohols followed by xylene. Finally, a few drops of Permount Mounting Medium were used to mount the resulting samples. The stained slides were then imaged with a 20× objective lens using a TS100F Nikon microscope (Nikon Instruments Inc., Melville, N.Y., USA) coupled with a DS-Fi3 C camera.

MDA MB 231 cells = test: alamar blue cell viability and cytotoxicity assay; type: cell-based, human
Protocol: The alamar blue cell viability and cytotoxicity assay was used to study the MDA MB 231 cells lines in the log phase of growth. MDA MB 231 cells were harvested with trypsin-EDTA in the presence of Dulbecco Phosphate Buffer (DPBS). 10^4 cells/well were then seeded in 12-well plates in L15+ medium (L15 medium with cell medium supplement of FBS and penicillin/streptomycin). After a 3-hour attachment period (of the cells), respective concentrations of 15 μM, 25 μM and 30 μM of paclitaxel, LRH-conjugated paclitaxel (of Example 1) and DMSO (in culture medium) were added to the 12-well plates consisting of 10^4 cells. Cell viability was monitored using the alamar blue cell viability and cytotoxicity reagent (Thermo Fisher Scientific, Waltham, Mass., USA) at times of 0 h, 18 h, 24 h, 48 h and 72 h, following drug addition. At each time point, the culture medium was replaced with 1 ml of 10% alamar blue solution (in culture medium). The 12-well plates were then incubated at 37° C. for different durations. After each time point, 100 µl of the solution incubated with alamar blue solution (ABS) was transferred into triplicate wells of a black opaque 96-well plate (Thermo Fisher Scientific, Waltham, Mass., USA).
The fluorescence intensities of the cell medium supernatant incubated with ABS were measured at 544 nm excitation and 590 nm emission using a 1420 Victor3 multi-label plate reader (Perkin Elmer, Waltham, Mass., USA). The percentage of alamar blue reduction, the percentage difference in cell population between the treated and untreated cells, and the percentage of cell growth inhibition, were determined using a combination of the ABS and cell viability studies. […]
where, FIsample=fluorescence intensity of the (treated or untreated) cells, FI10% AB=fluorescence intensity of 10% alamar blue reagent (negative control) and FI10% R=fluorescence intensity of 100% reduced alamar blue (positive control).
FItreated=fluorescence intensity of treated cells and FIcells=fluorescence intensity of untreated cells

[5] = 10 mg/kg per week IV, two weeks

CC(=O)O[C@H]1C(=O)[C@@]2(C)[C@H]([C@H](OC(=O)c3ccccc3)[C@]3(O)C[C@H](OC(=O)[C@H](O)[C@@H](NC(=O)c4ccccc4)c4ccccc4)C(C)=C1C3(C)C)[C@]1(OC(C)=O)CO[C@@H]1C[C@@H]2O [PTX, paclitaxel]
cell viability, PTX versus LHRH-conjugated PTX [1]: no significant differences in cell viability | tumor volume, 21-day group ([2]; 10 mg/kg per week IV): 86.83 mm^3 | final tumor sizes, day 14 group ([2]; two IV injections (one per week) of 10 mg/kg, mean volume before treatment 67 mm^3): ~49.1 mm^3 | xenograft tumor size, 28-day group ([2]; 10 mg/kg per week IV): 299.2 mm^3

LHRH-PTX
cell viability, PTX versus LHRH-conjugated PTX [1]: no significant differences in cell viability | disruption of actin filaments, vinculin structures and cell membranes (MDA-MB-231 cells): more evident | tumor outcome, mid- and late-stage tumors (21 and 28 days) ([2]; 10 mg/kg IV): significant shrinkage | decrease in xenograft volume compared to unconjugated PTX, 21-day group [2, 5]: 91% | percentage reduction in xenograft tumor volume compared to unconjugated PTX, 28-day group [2, 5]: 90.2% | structural changes in tumor cells/tissue (TEM) ([2]; 21-day and 28-day treatment groups): greater structural changes | tumor volume, 21-day group ([2]; 10 mg/kg per week IV): 7.76 mm^3 | necrosis in tumor tissue (H&E) ([2]; compared with unconjugated PTX): higher levels of necrosis in the tumors | tumor outcome, early stage (day 14 group) ([2]; two IV injections (one per week) of 10 mg/kg, listed as LHRH-conjugated paclitaxel): elimination of early stage breast tumors | tumor outcome, early stage (day 14 group) ([2]; two IV injections (one per week) of 10 mg/kg, listed as [D-Lys6]LHRH-conjugated PTX): eliminated | tumor outcome, early stage (day 14 group) ([2]; two IV injections (one per week) of 10 mg/kg, listed as [D-Lys6]LHRH-conjugated paclitaxel): eliminated the tumors | xenograft tumor size, 28-day group ([2]; 10 mg/kg per week IV): 29.4 mm^3 | adhesion force relative to unconjugated PTX, early stage tumor [3]: nearly three times | adhesion force relative to unconjugated PTX, late stage tumor [3]: about 2 times | adhesion force relative to unconjugated PTX, mid stage tumor [3]: more than three times | qualitative toxicity (mortality, body weight, clinical signs) [4]: No clinical signs, differences in mortality, or changes in body weight | qualitative toxicity (mortality, body weight, clinical signs) ([4]; listed as [D-Lys6]LHRH-conjugated paclitaxel): without any evidence of toxicity | histopathology of liver, lung and kidneys (H&E) ([4]; listed as [D-Lys6]LHRH-conjugated PTX): no significant histological or significant pathological changes; also recorded: no evidence of liver cell hyaline degeneration and necrosis, and no pulmonary edema or hyperplasia observed in the lungs | percentage cell growth inhibition (MDA MB 231 cells; 15 μM, 25 μM, and 30 μM, 72 h): effective at inhibiting the growth of MDA MB 231 cells | cytotoxicity on coincubation with LHRH (MDA MB 231 cells; coincubation of LHRH, 72 h): decreased the cytoxicity | cell viability (percentage alamar blue reduction) compared with unconjugated drug (MDA MB 231 cells; without siRNA, 18, 24, 48 and 72 h): significantly reduced cell viability than the unconjugated drugs
